Assay results reported in patent US20240123036A1, “COMPOSITIONS AND METHODS FOR THE TREATMENT OF GRAFT VERSUS HOST DISEASE” (VectivBio AG, priority 2021, published 2024).
Read-outs that look alike come from different tables or passages of the source. Square brackets hold non-standard residues; d marks the D form. Peptide text beside a SMILES is read from it. ξ: configuration not given here. Ile(3ξ) = CCC(C)[C@H](N)C(=O)O; Thr(3ξ) = CC(O)[C@H](N)C(=O)O; Nle = CCCC[C@H](N)C(=O)O

Key:
[1] = system: blood cells of Balb/c mice; assay: Cytarabine-induced immunosuppression, blood cell counts in Balb/c mice (Example 5, second experiment); assay type: in vivo, mouse; design: reduction in lymphocytes / Red blood cells, percentage difference from control / Platelets, percentage difference from control / White blood cells, percentage difference from control / Lymphocytes, percentage difference from control / Neutrophils, percentage difference from control: concentration or dose not given beside the values
Experimental: In a second experiment, apraglutide's effect on the ability of cytarabine to induce immunosuppression was assessed. The experiment included three groups of Balb/c mice: (A) vehicle; (B) cytarabine on Days 5-9; (C) cytarabine on Days 5-9, concomitant apraglutide on Days 5-18. RBC, platelets, WBC, NEU and LYMPH were assessed. A cohort was allowed to survive for 4 weeks to assess the effect of apraglutide on immunosuppression recovery (FIG. 12).

[2] = system: human leukemia cells (hCD45+) in NOD/SCID mice; conditions: Day 7; cytarabine Days 0-4; apraglutide or vehicle Days -4 to 4
Experimental: In a first experiment, cytarabine' s anti-tumor effects were assessed in leukemic NOD/SCID mice (FIG. 11a). Apraglutide or vehicle was administered on Days -4 to 4. Cytarabine or vehicle was administered on Days 0-4. Bone marrow and spleen samples were collected on Day 7 and percentage of hCD45+ cells determined.

[3] = system: fecal microbiota (Bacteroidetes, Firmicutes) of Balb/c mice; conditions: feces
[4] = system: cytarabine-induced damage in BALB/cJ female mice; conditions: for polymorphonuclear (PMN) cell count: cytarabine 30 mg/kg twice per day, alone or combined with hGLP-2 or apraglutide, FIG. 20
Experimental: In a first experiment BALB/cJ female mice were separated into six groups for a dose-response study to assess the pharmacologic effect of increasing doses of apraglutide (0.11, 0.3 and 1.1 mg/kg) administered subcutaneously. Cytarabine was administered intraperitoneally at 30 mg/kg twice per day for 5 days (Day 0 to Day +4). Apraglutide was administered daily for a total of nine days, 4 days before and 5 days during the administration of chemotherapy (Day −4 to Day +4). Apraglutide effect was compared to unmodified hGLP-2 which was administered twice daily from Day −4 to Day +4, at a nominal dose of 0.60 mg/kg and combined with cytarabine.

[5] = system: acute gastrointestinal GvHD in BALB/cJ male mice; assay: Acute GvHD mouse model, 7.0 Gy irradiation plus allogeneic transplant (Example 1, second experiment); assay type: in vivo
Description: FIG. 3a-3b is a series of graphs showing colon length and small intestine length in an acute GvHD mouse model following treatment with apraglutide. Data are shown as the mean ±SEM length of intestinal colon. N-5-10/group. Each dot represents data for one mouse.
FIG. 14 is a series of graphs showing that treatment with apraglutide improves animal survival of TBI/BMT treated animals. Kaplan-Meier curves—Animal survival was monitored daily. N=10 at time=0 for each treatment group. […] When comparing to the control group, survival of TBI/BMT was significant different ### p=0.0007. BMT=b one marrow transplant; TBI=total body irradiation.

[6] = system: chemotherapy-induced gastrointestinal damage in Balb/c mice; assay: Chemotherapy-induced (cytarabine or melphalan) intestinal damage in Balb/c mice (Example 3); assay type: in vivo, mouse
Experimental: In a first experiment, 4 groups of Balb/c mice: (A) vehicle only; (B) cytarabine on Days 5-9, no apraglutide given; (C) cytarabine on Days 5-9; concomitant apraglutide on Days 5-18; (D) cytarabine on Days 5-9; pre-treatment apraglutide on Days 1, 3, and continued as concomitant treatment on Days 5, 8, 11, 14, and 17. Treatment groups were dosed with 30 mg/kg cytarabine and/or apraglutide 3.3 mg/kg.
In a second experiment, 3 treatment groups of Balb/c mice: (A) vehicle only; (B) melphalan on Day 9, no apraglutide; (C) melphalan on Day 9; pre-treatment apraglutide on Days 1, 3, 5, 7 and continued as concomitant treatment on Days 9, 11, and 13.
In both models, mice that received vehicle without any treatment served as controls. Intestinal tissue histology, body weight, survival, and plasma citrulline, a marker of total mucosal mass and intestinal growth, was assessed in both models.

[7] = system: GvHD-induced intestinal damage in BALB/cJ mice; assay: TBI-induced intestinal damage and allogeneic transplantation in BALB/cJ mice (Example 2, second experiment); assay type: in vivo, mouse
Experimental: Intestinal damage indicative of GvHD (histological changes, length, hemorrhage, inflammation), body weight, and survival were assessed.

[8] = system: blood cells of Balb/c mice; assay: Melphalan-induced immunosuppression in Balb/c mice (Example 5, third experiment); assay type: in vivo, mouse
Experimental: In a third experiment, the effect of apraglutide on melphalan-induced immunosuppression was assessed (FIG. 13). Three groups of Balb/c mice were included: (A) vehicle; (B) melphalan on Day 9; (C) melphalan on Day 9, apraglutide pre-treatment on Days 1, 3, 5, 7 and continued as co-administration on Days 9, 11, and 13. WBC, NEU and LYMPH were assessed.

[9] = system: hPBMC engraftment in NOG mice; assay: Engraftment of human PBMC in total-body-irradiated NOG mice (Example 2, first experiment); assay type: in vivo, mouse
Experimental: Engraftment rate was determined through CD45 expression in blood, bone marrow and spleen.

[10] = system: acute gastrointestinal GvHD in BALB/cJ male mice; assay: Acute GvHD mouse model, 8.5 Gy irradiation plus allogeneic bone marrow/spleen cell transplant (Example 1, first experiment); assay type: in vivo
Experimental: Mouse #3 (Group A), #13 (Group B) and #20 (Group B) were administered the cells by subcutaneous injection rather than intravenously. Mouse #5 (Group B) and #10 (Group B) received half the cells by intravenous injection and half by subcutaneous injection.
Following sacrifice of the mice, the colon lengths of the mice in Group A and Group B, as well as a control group of BALB/c mice (untreated), were measured. […] Thus, treatment with apraglutide protected the mice in Group A from a reduction in colon length, which is typically attributed to the inflammation caused by acute, gastrointestinal GvHD.
Various histological parameters of the jejunum were also measured, including single cell necrosis levels, necrosis of all crypts, shortening of villi, cryptal hyperplasia (regenerative), cell infiltrate, and cryptal abscess. These histological parameters were graded on a standard histological grading system (1 to 3). […] These indicate that the administration of apraglutide has a protective effective against jejunal mucosal damages induced by irradiation and GvHD.

[11] = Day 18 (post-treatment), cytarabine 30 mg/kg Days 5-9, apraglutide 3.3 mg/kg Days 1-18
[12] = melphalan on Day 9, with or without apraglutide

Nc1ccn([C@@H]2O[C@H](CO)[C@@H](O)[C@@H]2O)c(=O)n1 [Cytarabine only, Cytarabine]
Lymphocytes, percentage difference from control ([1]; at treatment end): −91% | Neutrophils, percentage difference from control ([1]; at treatment end): −82% | Platelets, percentage difference from control ([1]; at treatment end): −68% | Red blood cells, percentage difference from control ([1]; at treatment end): −23% | White blood cells, percentage difference from control ([1]; at treatment end): −89% | reduction in lymphocytes ([1]; end of the treatment period): 91% | percentage of hCD45 in bone marrow after chemotherapy [2]: 35.5±4% | Mean % of taxa at the Phylum level, Bacteroidetes, Day 0 ([3]; Day 0 (pre-treatment)): 16.3% | Mean % of taxa at the Phylum level, Firmicutes, Day 0 ([3]; Day 0 (pre-treatment)): 78.7% | Mean % of taxa at the Phylum level, Bacteroidetes, Day 18 [3, 11]: 48.7% | Mean % of taxa at the Phylum level, Firmicutes, Day 18 [3, 11]: 49.5% | polymorphonuclear (PMN) cell count [4]: depleted

CCCC[C@H](NC(=O)[C@H](CCC(=O)O)NC(=O)[C@H](CC(=O)O)NC(=O)[C@H](CO)NC(=O)[C@H](Cc1ccccc1)NC(=O)[C@H](CO)NC(=O)CNC(=O)[C@H](CC(=O)O)NC(=O)CNC(=O)[C@@H](N)Cc1c[nH]cn1)C(=O)N[C@H](Cc1ccccc1)C(=O)N[C@H](C(=O)N[C@H](C(=O)N[C@@H](CC(C)C)C(=O)N[C@@H](CC(=O)O)C(=O)N[C@@H](CC(C)C)C(=O)N[C@@H](CC(C)C)C(=O)N[C@@H](C)C(=O)N[C@@H](C)C(=O)N[C@@H](CCCNC(=N)N)C(=O)N[C@@H](CC(=O)O)C(=O)N[C@@H](Cc1ccccc1)C(=O)N[C@H](C(=O)N[C@@H](CC(N)=O)C(=O)N[C@@H](Cc1c[nH]c2ccccc12)C(=O)N[C@@H](CC(C)C)C(=O)N[C@H](C(=O)N[C@@H](CCC(N)=O)C(=O)N[C@H](C(=O)N[C@@H](CCCCN)C(=O)N[C@H](C(=O)N[C@H](C(=O)N[C@@H](CC(=O)O)C(N)=O)C(C)O)C(C)CC)C(C)O)C(C)CC)C(C)CC)C(C)CC)C(C)O (stereo partly drawn) [apraglutide] (H-HGDGSFSDE[Nle][dF][Thr(3ξ)][Ile(3ξ)]LDLLAARDF[Ile(3ξ)]NWL[Ile(3ξ)]Q[Thr(3ξ)]K[Ile(3ξ)][Thr(3ξ)]D-NH2)
recovery of hematological parameters ([1]; 4 weeks after the end of treatment): did not impact | body weight of mice surviving beyond Day 9 ([5]; Group A (apraglutide)): regained body weight | weight loss ([5]; Group A (apraglutide) vs Group B (vehicle)): No significant difference | length of the small intestine ([5]; across the three Groups, FIG. 3): no differences were observed | median survival ([5]; apraglutide 3 mg/kg s.c. every second day Day -9 to +7, 7.0 Gy + transplant): 9 days | mice survived past Day 9 ([5]; apraglutide 3 mg/kg s.c., 7.0 Gy + transplant): 40% | animal survival (Kaplan-Meier, log-rank test) ([5]; apraglutide initiated before TBI/BMT, FIG. 14, p<0.03): significant difference relative to TBI/BMT animals | mice showing an intestinal pathological score of 0 ([5]; macroscopic score 0 least severe to 4 most severe, Group A): four out of out of ten | chemotherapy-induced weight loss ([6]; FIG. 8): attenuated | degenerative intestinal changes (villi and crypt atrophy) caused by cytarabine or melphalan ([6]; apraglutide 3.3 mg/kg co-administration, histology): reduced | overall survival ([6]; vs vehicle-only or chemotherapy-only groups, FIG. 9): improved | weight of duodenum, ileum and jejunum ([6]; with apraglutide): increased in weight | lymphocyte engraftment ([7]; apraglutide 3.3 mg/kg Days -9 to +7): successfully achieved | mean colon length ([7]; apraglutide 3.3 mg/kg, TBI + allogeneic transplantation): 8.6±0.35 cm | mucosal degenerative/inflammatory changes (post-mortem histological examination) ([7]; apraglutide vs vehicle): less | overall survival ([7]; on Day +9, p=0.0134 vs vehicle): 40% | impact on cytarabine- or melphalan-induced immunosuppression ([8]; combination with apraglutide): no negative impact | engraftment rate in blood, spleen and bone marrow ([9]; apraglutide 3.3 mg/kg Days -6 to 18, CD45 expression): not affected | hCD45+ cells infiltration in the intestinal wall ([9]; apraglutide vs vehicle): no difference | engraftment rate in blood ([9]; at D20 in blood, range): 22.2-47.6% | animal survival ([4]; apraglutide 0.11 mg/kg s.c. daily Day -4 to +4 with cytarabine 30 mg/kg i.p. twice per day Day 0 to +4): 11/16 | citrulline concentrations ([4]; apraglutide 0.33 mg/kg and 1.1 mg/kg co-administered with cytarabine, compared to cytarabine alone, FIG. 19): improvement | animal survival ([4]; apraglutide 0.33 mg/kg s.c. daily Day -4 to +4 with cytarabine 30 mg/kg i.p. twice per day Day 0 to +4): 14/16 | animal survival ([4]; apraglutide 1.1 mg/kg s.c. daily Day -4 to +4 with cytarabine 30 mg/kg i.p. twice per day Day 0 to +4): 16/16 | initial weight loss ([4]; combination with cytarabine, apraglutide 0.11 mg/kg, hGLP-2 0.60 mg/kg twice daily): did not decrease | body weight and survival in animals recovering from cytarabine treatment ([4]; combination with cytarabine, apraglutide 0.11 mg/kg, hGLP-2 0.60 mg/kg twice daily, FIG. 18): a trend towards increased body weight and survival | polymorphonuclear (PMN) cell count [4]: not reversed | colon length ([10]; apraglutide 3 mg/kg s.c. every second day Day -9 to +7, 8.5 Gy, vs vehicle group and untreated control mice, FIG. 1): increased colon lengths that were nearly the same as the control mice | overall mean severity score of mucosal degenerative/inflammatory changes in the jejunum ([10]; apraglutide 3 mg/kg s.c., compared with vehicle, histological grading 1 to 3): slightly decreased | mean severity score of the regenerative cryptal hyperplasia ([10]; jejunum, apraglutide 3 mg/kg s.c., compared with vehicle): slightly increased

N[C@@H](Cc1ccc(N(CCCl)CCCl)cc1)C(=O)O [melphalan, Melphalan]
LYMPH vs vehicle [8, 12]: severe decreases | WBC vs vehicle [8, 12]: severe decreases
